The target of data set [1] is dopamine transporter (DAT) (Cavia porcellus, UniProt H0WCX4). The data set can be described thus: Dopamine transporter binding assay [3H]WIN 35,428. The arrangement: species or system Guinea Pig. Conditions: for inhibition at 10 µM: read-out: INH at 10 μM DAT. As for the experimental part: DAT inhibition activity was tested according to the procedure described by J. Javitz et al., Mol. Pharmacol., 26: 35-44 (1984). The test results for a number of representative compounds of the invention are reported hereinbelow.
I. Dopamine Transporter Binding Assay [3H]WIN 35,428
• This assay was carried out according to the procedure described by Javitch, J. J. et al., Mol. Pharmacol. 26: 35-44; 1984
A. Tissue Preparation (Prepare all Solutions on Ice) • 1. Thaw frozen brains from male Guinea Pigs (in assay buffer) and place in 50 mM TRIS-HCl (pH 7.4 at 25° C. with 120 mM NaCl). Isolate striatum. • 2. Use a Polytron to homogenize tissue in 20 vols. (w/v) of 50 mM Tris-HCl (pH 7.4 at 25° C. with 120 mM NaCl). • 3. Centrifuge homogenate at 48,400×g for approximately 10 minutes at 4° C. Discard supernatant. • 4. Wash pellet an additional time as described in steps 2 and 3. • 5. Store pellet on ice until needed for binding assay. • 6. Using a Polytron (setting 5; approximately 10 seconds) resuspend pellet in 50 mM Tris-HCl (pH 7.4 at 25° C. with 120 mM NaCl) to an initial concentration of 10 mg/ml (original wet weight), such that the final concentration is 8 mg/ml or 4.0 mg tissue/tube.
B. Binding Reaction • 1. Each tube receives the following components: • 50 ul drug or vehicle • 50 ul [3H]-WIN 35,428 • 400 ul tissue suspension. • 2. Initiate binding reaction with the addition of tissue, and incubate for 120 minutes at 0° C. (on ice). • 3. Terminate binding reaction by rapid filtration of tube contents onto untreated Whatman GF/C filters. • 4. Rinse the assay tubes once with ice cold 50 mM TRIS HCl (pH 7.4 at 25° C. with 120 mM NaCl, BSA), then rapidly rinse the filters with 6×1 mls/tube of the same wash buffer. • 5. Radioactivity trapped onto the filters is assessed using LSM machine. Let sit for 3 hours in scint cocktail.
C. Dopamine Tranasporter Binding Assay
Materials and Reagents • 1. [3H]-WIN 35-428 is diluted to a concentration of 60 nM in 50 mM TRIS HCl (pH 7.4 at 25° C. with 120 mM NaCl). Thus, the final ligand concentration is 6 nM. • 2. Non-specific binding is defined as that remaining in the presence of 1×10^-6 M GBR12909 (room temperature cabinet). GBR12909 MW=523.5 g/mol. Will solubilize in 4% DMSO (sonicate 15 minutes). Aliquots can be used (1E-3). • 3. The reference compound for the assay is GBR12909 and is diluted in 4% DMSO and is then run at the following final concentrations: 1×10^−10, 5×10^−10, 2×10^−9, 5×10^−9, 1×10^−8, 2×10^−8, 5×10^−8, 1×10^−7, 2×10^−7, 5×10^−7, 1×10^−6, 5×10^−6. • 4. The positive control GBR12909 and is run at the final concentrations of: 2×10-8, 1×10^−7, 5×10^−7M. • 5. The Kd for the receptor is 28.0 nM. Buffers

The next data set deals with male Swiss Webster mice. The data set can be described thus: Time-course (8 hr) mouse locomotor activity testing. Type of data set: in vivo. Conditions: for Duration of suppression of spontaneous locomotor activity: FIGS. 6A and 6B; for ID50 (dose producing 1/2 maximal depressant activity): IP; for Planned comparisons against the vehicle group, horizontal activity counts in period of maximal depressant effect: ps<0.05. Here is the method: A dose response study was conducted of locomotor depression induced by the compound of Example 3, according to NIDA's Medication Development Division (MDD) locomoter activity studies standard protocol. The study was conducted using 40 Digiscan locomotor activity testing chambers (40.5×40.5×30.5 cm) housed in sets of two, within sound attenuating chambers. A panel of infrared beams (16 beams) and corresponding photodetectors were located in the horizontal direction along the sides of each activity chamber. A 7.5 W incandescent light above each chamber provided dim illumination. Fans provided an 80 dB ambient noise level within the chamber. Separate groups of 8 non-habituated male Swiss Webster mice (Hsd:ND4, aged 2-3 months) were injected via the intraperitoneal (IP) route with either vehicle (2% methyl cellulose) or the compound of Example 3, above, (3, 10, 30 or 100 mg/kg) twenty minutes prior to locomotor activity testing. Just piro to placement in the apparatus, all mice received a saline injection IP. In all studies, horizontal activity (interruption of photocell beams) was measured for 1 hour within 10 minute periods. Testing was conducted with one mouse per activity chamber.
A time course/dose response study of the locomotor depression inducing effect of the compound of Example 3 was conducted, according to the same MDD locomotor activity studies time course protocol described immediately above, except that groups of 8 mice were injected with either vehicle (2% methylcellulose) or the compound of Example 3 (3, 10, 30 or 100 mg/kg), immediately prior to locomotor activity testing. Behavioral observations were recorded on each mouse at 30, 120 and 480 minutes following 100 mg/kg of the test compound. The vehicle used in this study was 2% methylcellulose.
A separate time course/dose response study of the locomotor depression inducing effect of the compound of Example 6 was also conducted, under the same conditions described above for testing of the compound of Example 3. Additional groups of 8 mice were injected with either vehicle (2% methylcellulose) or the test compound (3, 10, 30 or 100 mg/kg), immediately prior to locomotor activity testing. Behavioral observations were recorded on each mouse at 30, 120 and 480 minutes following 100 mg/kg of the test compound. The vehicle used in this study was 2% methylcellulose.
Depressant effects of 30 and 100 mg/kg occurred within 10 minutes following injection and lasted 140 to 160 minutes. The period 20-50 min was selected for analysis of dose-response data because this was the time period in which maximal suppression first appeared as a function of dose. The mean average horizontal activity counts/10 min for this 30-min period were fit to a linear function of log10 dose of the descending portion of the dose-effect curve (3 to 100 mg/kg dose range).
Depressant effects of 100 mg/kg occurred within 10 minutes following injection and lasted 160 minutes. The period 50-80 min was selected for analysis of dose-response data because this was the time period in which maximal suppression first appeared as a function of dose. The mean average horizontal activity counts/10 min for this 30-min period were fit to a linear function of log10 dose of the descending portion of the dose-effect curve (10 to 100 mg/kg dose range).

Data set [2] can be described thus: Tolerability and observable behavior changes. Type of data set: in vivo. Conditions: for Well tolerated dose: in vivo; for Duration of observable changes in behavior: occurred in minutes.

This note sets out measurements from patent publication US9604945B2, “Sydnonimines-specific dopamine reuptake inhibitors and their use in treating dopamine related disorders” (priority 2007, dated 2017).

dopamine transporter (DAT), sequence (H0WCX4 1-619): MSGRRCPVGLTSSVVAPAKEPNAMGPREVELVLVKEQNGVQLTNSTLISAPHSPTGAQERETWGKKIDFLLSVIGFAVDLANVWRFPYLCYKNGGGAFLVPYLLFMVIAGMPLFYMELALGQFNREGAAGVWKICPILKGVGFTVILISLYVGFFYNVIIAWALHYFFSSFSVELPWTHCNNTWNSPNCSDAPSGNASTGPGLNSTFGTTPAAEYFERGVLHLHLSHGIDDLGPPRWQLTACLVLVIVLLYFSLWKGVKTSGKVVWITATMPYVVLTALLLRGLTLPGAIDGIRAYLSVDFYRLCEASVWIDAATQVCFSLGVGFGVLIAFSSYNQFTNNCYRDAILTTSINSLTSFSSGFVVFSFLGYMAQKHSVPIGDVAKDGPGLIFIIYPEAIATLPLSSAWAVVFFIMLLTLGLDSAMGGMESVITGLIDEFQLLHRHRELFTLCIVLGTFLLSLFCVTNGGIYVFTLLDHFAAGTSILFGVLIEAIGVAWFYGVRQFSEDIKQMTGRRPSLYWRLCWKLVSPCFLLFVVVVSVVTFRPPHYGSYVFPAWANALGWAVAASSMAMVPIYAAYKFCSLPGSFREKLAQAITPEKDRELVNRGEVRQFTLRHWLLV

Turning to `Cc1ccc(C[n+]2[cH-]/c(=N\C(=O)Nc3ccccc3)on2)cc1` [Example 3, N-phenylcarbamoyl-3-(p-methyl-benzyl)-sydnonimine], in data set [1], the Ki came out at 0.19 nM and the inhibition at 10 µM amounted to 94%. The “Onset of depressant effects following injection” value with male Swiss Webster mice (30 and 100 mg/kg IP) is not above 10 min. Further, in the data set with male Swiss Webster mice, the “Duration of suppression of spontaneous locomotor activity” value is given as “at least 3 hours”; the “Planned comparisons against the vehicle group, horizontal activity counts in period of maximal depressant effect” value was “significant depressant effect for 30 and 100 mg/kg”. Further, the “ID50 (dose producing 1/2 maximal depressant activity)” value in the data set on male Swiss Webster mice (period 20-50 min, 3 to 100 mg/kg dose range) is recorded as approximately 24.0 mg/kg. Moreover, in data set [2], the “Dosage above which subjects became lethargic” value is listed as “above 125 kg/mg”, the Well tolerated dose entry is given as “at least 200 mg/kg” and the “Duration of observable changes in behavior” value is 2 to 3 h.

`O=C(/N=c1\[cH-][n+](CCCc2ccccc2)no1)Nc1ccccc1` [Example 6, N-phenylcarbamoyl-3-(phenylpropyl)-sydnonimine]: in data set [1], the affinity corresponds to a Ki of 25 nM and the inhibition at 10 µM was 96%. Moreover, in the data set with male Swiss Webster mice (100 mg/kg IP), the “Duration of depressant effects” value stood at 160 min and the “Onset of depressant effects following injection” value is not above 10 min. In the data set with male Swiss Webster mice, the “Duration of suppression of spontaneous locomotor activity” value is given as “at least 3 hours” and the “Planned comparisons against the vehicle group, horizontal activity counts in period of maximal depressant effect” value is “significant depressant effect for 100 mg/kg”. For the same compound, the “ID50 (dose producing 1/2 maximal depressant activity)” value with male Swiss Webster mice (period 50-80 min, 10 to 100 mg/kg dose range) is listed as approximately 30.2 mg/kg. In addition, the “Lethargic effect (compared with Example 3)” value in data set [2] (higher concentrations) is listed as “this effect was reduced”. For the same compound, in data set [2], the Well tolerated dose entry is reported as “at least 200 mg/kg” and the “Duration of observable changes in behavior” value lay within 2 to 3 h.

One may read the Ki as the dissociation constant of the complex between target and ligand, obtained from inhibition or displacement. A higher Ki goes with a looser hold on the target.
